In patent US20210060320A1, “TRANSDERMAL DRUG DELIVERY SYSTEM AND METHOD FOR USING SAME” (NICHIBAN CO., LTD., priority 2017, published 2021):

Conditions: pH 8
Excerpt: Note that in the present invention, as an index of the “water solubility” in a “water-soluble drug” or a “water-soluble steroid”, a distribution coefficient (octanol/water distribution coefficient) can be employed. The distribution coefficient can be expressed by log D by taking into consideration of the influence of pH, and the water solubility is indicated by a minus value, while the liposolubility lipophilicity is indicated by a plus value.
The distribution coefficient can be obtained in accordance with the method described in JIS Z7260-107 or […].

Row | Substance | distribution coefficient (log D)
1 | dexamethasone metasulfobenzoate sodium | −2
2 | prednisolone sodium phosphate | 0
